Several values for one entry are separate records, joined by “and”; a condition that tells them apart may be missing. Equal entries are not always repeated. Where two headings read alike, the source gives them in different places.
Legend:
[1] = biological target: T1, wild type EGFR TKD (Homo sapiens, UniProt P00533); test: Michaelis-Menten kinetics (KM,ATP, KM,pept); type: biochemical
T1 construct: hexa-histidine (6x His) (N); made in house; host or cells: Spodoptera frugiperda Sf9 (baculovirus, pFastBac1)

[2] = biological target: T2, EGFR TKD ΔL747-A750InsP (Homo sapiens, UniProt P00533, A750P/DEL747-749); test: Michaelis-Menten kinetics (KM,ATP, KM,pept); type: biochemical
T2 construct: 6x His (N); made in house; host or cells: Spodoptera frugiperda Sf9 (baculovirus)

[3] = biological target: T3, EGFR TKD L747P (Homo sapiens, UniProt P00533, L747P); test: Michaelis-Menten kinetics (KM,ATP, KM,pept); type: biochemical
T3 construct: 6x His (N); made in house; host or cells: Spodoptera frugiperda Sf9 (baculovirus)

[4] = biological target: T4, EGFR TKD ΔE746-A750 (Homo sapiens, UniProt P00533, DEL746-750); test: Michaelis-Menten kinetics (KM,ATP, KM,pept); type: biochemical; conditions: read-out: Best fit KM,ATP; individual experiments (Fig. 3b data)
T4 construct: 6x His (N); made in house; host or cells: Spodoptera frugiperda Sf9 (baculovirus)
Description: (§1) Reactions were carried out in a 384-well assay plate format at 30 °C and initiated with the addition of AQpeptide after 5 min incubation of EGFR with ATP. Progress curves of phosphorylated peptide accumulation were monitored using a BioTek Synergy microplate reader with a fluorescence intensity module excitation and emission wavelength at 360 nm and 480 nm, respectively.
(§2) Initial velocities (νo) at different ATP concentrations were determined by inspecting progress curves during the steady state phase. The νo values were plotted against ATP concentration, and the curves fit to the Michaelis-Menten equation to estimate KM, ATP as well as Vmax using GraphPad Prism.

[5] = biological target: T5, EGFR TKD ΔE746-T751InsA (Homo sapiens, UniProt P00533, DEL746-750/T751A); test: Michaelis-Menten kinetics (KM,ATP, KM,pept); type: biochemical
T5 construct: 6x His (N); made in house; host or cells: Spodoptera frugiperda Sf9 (baculovirus)
Description: as §1, §2

[6] = biological target: T6, EGFR TKD ΔL747-T751InsP (Homo sapiens, UniProt P00533, DEL747-750/T751P); test: Michaelis-Menten kinetics (KM,ATP, KM,pept); type: biochemical; conditions: read-out: Best fit KM,ATP; individual experiments (Fig. 3b data)
T6 construct: 6x His (N); made in house; host or cells: Spodoptera frugiperda Sf9 (baculovirus)
Description: as §1, §2

[7] = biological target: T7, EGFR TKD ΔL747-P753InsS (Homo sapiens, UniProt P00533, DEL747-752/P753S); test: Michaelis-Menten kinetics (KM,ATP, KM,pept); type: biochemical
T7 construct: 6x His (N); made in house; host or cells: Spodoptera frugiperda Sf9 (baculovirus)

[8] = biological target: T8, EGFR TKD ΔS752-I759 (Homo sapiens, UniProt P00533, DEL752-759); test: Michaelis-Menten kinetics (KM,ATP, KM,pept); type: biochemical
T8 construct: 6x His (N); made in house; host or cells: Spodoptera frugiperda Sf9 (baculovirus)

[9] = biological target: T9, EGFR TKD L858R (Homo sapiens, UniProt P00533, L858R); test: Michaelis-Menten kinetics (KM,ATP, KM,pept); type: biochemical
T9 construct: 6x His (N); made in house; host or cells: Spodoptera frugiperda Sf9 (baculovirus)

[10] = biological target: T10, EGFR TKD L858R/T790M (Homo sapiens, UniProt P00533, L858R/T790M); test: Michaelis-Menten kinetics (KM,ATP, KM,pept); type: biochemical; conditions: read-out: Best fit KM,ATP; individual experiments (Fig. 3b data)
T10 construct: 6x His (N); made in house; host or cells: Spodoptera frugiperda Sf9 (baculovirus)
Description: as §1, §2

[11] = biological target: EGFR TKD ΔL747-E749 (Homo sapiens, UniProt P00533, DEL747-749); test: Michaelis-Menten kinetics (KM,ATP)
Description: as §1, §2

[12] = read-out: Best fit KM,ATP, individual experiments (Fig. 3b data)
[13] = read-out: KM, ATP, 20 μM peptide, mean ± SD

Km [1, 12]: 9.32 µM and 7.22 µM and 7.98 µM and 15.8 µM and 15.6 µM and 15 µM and 12.6 µM and 10.1 µM
Km [1, 13]: 12 ± 3 µM
Km [2, 12]: 23.6 µM and 15.4 µM and 18.7 µM and 31.1 µM and 32.5 µM and 29.2 µM and 22.7 µM and 20.1 µM and 16.8 µM
Km [2, 13]: 23 ± 6 µM
KM, ATP for L747P smaller than for ΔE746-A750 [3]: 7.5 fold
Km [3, 12]: 16.8 µM and 14.6 µM and 12.5 µM and 19.3 µM and 21.2 µM and 21.7 µM and 28.8 µM and 29.4 µM and 26 µM
Km [3, 13]: 21 ± 6 µM
Km [4]: 194 µM and 149 µM and 116 µM and 126 µM
Km [5, 12]: 216 µM and 285 µM and 228 µM and 263 µM and 287 µM and 318 µM
Km [5, 13]: 240 ± 59 µM
Km [6]: 93.5 µM and 183 µM and 100 µM and 217 µM and 135 µM and 204 µM and 224 µM
Km [7, 12]: 115 µM and 93.7 µM and 90.2 µM and 86 µM and 70.3 µM and 87.6 µM and 138 µM and 132 µM and 99.9 µM
Km [7, 13]: 101 ± 22 µM
Km [8, 13]: 91 ± 25 µM
Km [9, 12]: 89.3 µM and 87.4 µM and 87.6 µM and 63.1 µM and 77.3 µM and 74.5 µM and 60.1 µM and 51.1 µM
Km [9, 13]: 74 ± 14 µM
Km [10]: 48 µM and 47.5 µM and 38.9 µM and 35.3 µM and 47.4 µM and 56.3 µM and 50.7 µM
Km [11, 12]: 10.3 µM and 8.84 µM and 8.25 µM and 18.4 µM and 22.3 µM and 26.3 µM and 7.28 µM and 5.87 µM and 5.78 µM
Km [11, 13]: 13 ± 8 µM
SMILES: Nc1ncnc2c1ncn2[C@@H]1O[C@H](COP(=O)(O)OP(=O)(O)OP(=O)(O)O)[C@@H](O)[C@H]1O [ATP]
Km [8, 12]: 124 µM (2×) and 122 µM and 82.8 µM (2×) and 79.2 µM and 65.9 µM and 75.6 µM and 64.3 µM
